Series [1] can be described thus: Maximum tolerated dose study. The following applies: 25, 50, 100 or 200 mg/kg oral twice daily for 5 days + 5 days observation. The class given is in vivo. On the procedure: ; 6 mice per group, including vehicle control). One mouse from each group was euthanized for PK analysis at 6 h post-initial dose. The weight and physical states of the animals were monitored during the 5 days of treatment and for 5 days following drug administration. […]

The test system of series [2] is U87 cells (microtubule network). Briefly: Immunofluorescent staining of cellular β-tubulin. The series is classed as cell-based, human. The following applies: U87, compounds at their IC50 concentrations, 24 h. On the procedure:
U87 cells (4000/well) were plated in black 96-well plates (Perkin Elmer 6055302; Waltham, MA, USA) and grown overnight. Cells were treated with compounds for 24 h, fixed with 4% paraformaldehyde for 20 min, and permeabilized with FoxP3 permeabilization buffer (eBioscience/Thermo Fisher Scientific 00-5523-00; Waltham, MA, USA) for 10 min at RT. Cells were incubated with an anti-TUBB3 (Tuj1) antibody (1:1000; […] Technologies 60052; Vancouver, BC, Canada) labeled with Hoechst 33342 dye (1:2000; Thermo Fisher Scientific H3570; Waltham, MA, USA). Images (40×) were taken with an automated high-content imaging microscope (Operetta, Perkin Elmer; Waltham, MA, USA).

SMILES strings stand for the structures.

Take `CO[C@H]1C[C@@H](C(=O)NC(=O)Nc2ccc(Oc3ccc(Cl)cn3)c(C)c2)C1` [RGN3067]: the body weight loss entry in series [1] is reported as “no statistically significant weight loss was observed”. For the same molecule, the “effect on tubulin organization / MT network morphology” value in series [2] is given as “varying levels of disruption of tubulin organization”.
